Data on 76 compounds can be found in the supplement of paper PMC7806825.

± gives the standard deviation of the averaged measurements.

In the data set the test system is McpC ligand-binding domain (Salmonella Typhimurium SL1344). Put plainly: protein melting temperature (Tm) in presence of compound (degrees C); higher = more thermal stabilisation (possible ligand binding). Particulars: compound stock concentration: 10-20 mM, 2 uL in 10 uL reaction.

With `CSCC[C@H](N)C(=O)O` [L-Methionine], the protein melting temperature is, setting by setting: (Biolog plate: PM02A) 43.5; (Biolog plate: PM03B) 44.7; (Biolog plate: PM04A) 43.9; (Biolog plate: PM05) 44.4.
Regarding `O=C1NC(=O)C(=O)C(=O)N1` [Alloxan], the protein melting temperature (Biolog plate: PM03B) worked out at 44.3.
Consider `OC[C@H]1O[C@@H](S)[C@H](O)[C@@H](O)[C@@H]1O` [1-Thio-b-D-Glucose], for which the protein melting temperature (Biolog plate: PM04A) is 44.5.
For the compound `Oc1nc(O)c2nc(O)[nH]c2n1` [Uric acid], the protein melting temperature (Biolog plate: PM03B) is 44.4.
`O=S1(=O)CCCC1` [Tetramethylene Sulfone]: the protein melting temperature (Biolog plate: PM04A) stood at 44.3.
Take `O=c1[nH]c(=O)c2nc[nH]c2[nH]1` [Xanthine]: for the setting “Biolog plate: PM03B”, the protein melting temperature is 44.5.
Regarding `O=P(O)(O)CP(=O)(O)O` [Methylene Diphosphonic acid], where the note is “Biolog plate: PM04A”, the protein melting temperature was 44.
The same measure, in the same setting: the figure for `O=c1ccn([C@@H]2O[C@H](CO)[C@@H](OP(=O)(O)O)[C@H]2O)c(=O)[nH]1` [Uridine 3`-Monophosphate] is 43.5; for `O=C(O)[C@H](O)[C@@H](O)[C@H](O)[C@H](O)COP(=O)(O)O` [6-Phospho-Gluconic acid] it is 43.6.
Regarding `NCCO` [2-Aminoethanol], where the note is “Biolog plate: PM01”, the protein melting temperature was 44.3.
Consider `O=S(O)(O)=S` [Thiosulfate], for which, under “Biolog plate: PM04A”, the protein melting temperature was determined as 42.8.
With `OC[C@H]1O[C@H](OC[C@H]2OC(O)[C@H](O)[C@@H](O)[C@@H]2O)[C@H](O)[C@@H](O)[C@H]1O` (stereo partly drawn) [D-Melibiose], the protein melting temperature (Biolog plate: PM01) worked out at 44.7.
The same measure, in the same setting: the same measure for `OC[C@@H](O)[C@@H](O)[C@H](O)[C@H](O)CO` [D-Mannitol]: 44.7.
As to `Nc1nc2c(ncn2[C@H]2C[C@H](O)[C@@H](CO)O2)c(=O)[nH]1` [2`-Deoxyguanosine], the protein melting temperature (Biolog plate: PM05) is 43.7.
With `OC[C@H]1OC(O[C@H]2[C@H](O)[C@@H](O)C(O[C@H]3[C@H](O)[C@@H](O)[C@@H](O)O[C@@H]3CO)O[C@@H]2CO)[C@H](O)[C@@H](O)[C@@H]1O` (some centres undefined) [Dextrin], the protein melting temperature (Biolog plate: PM02A) turned out to be 44.
For the compound `CC(=O)C(=O)O` [Pyruvic acid], the protein melting temperature (Biolog plate: PM01) was found to be 44.9.
In the case of `N[C@@H](CS(=O)(=O)O)C(=O)O` [L-Cysteic acid], the protein melting temperature (Biolog plate: PM04A) amounted to 43.1.
Take `C[C@@H](O)[C@H](O)[C@H](O)[C@@H](O)C=O` [D-Fucose]: the protein melting temperature (Biolog plate: PM02A) amounted to 43.3.
`CCCCCN` [N-Amylamine]: the protein melting temperature (Biolog plate: PM03B) came to 44.9.
Consider `OC[C@H]1O[C@H](O)[C@H](O)[C@@H](O)[C@@H]1O` [a-D-Glucose], for which the protein melting temperature runs as follows: (Biolog plate: PM01) 44.9; (Biolog plate: PM05) 42.9.
On to `O=C[C@H](O)[C@H](O)[C@@H](O)CO` [L-Lyxose], for which the protein melting temperature (Biolog plate: PM01) was 44.7.
Regarding `N[C@@H](Cc1c[nH]cn1)C(=O)O` [L-Histidine], the protein melting temperature (Biolog plate: PM02A) stood at 44.7, the protein melting temperature (Biolog plate: PM03B) was determined as 44.8 and the protein melting temperature (Biolog plate: PM05) came out at 44.6.
In the case of `Cc1c[nH]c(=O)[nH]c1=O` [Thymine], the protein melting temperature amounted to 45.1 (Biolog plate: PM03B) and 43 (Biolog plate: PM05).
With `C/C=C/C=C/C(=O)O` [Sorbic acid], the protein melting temperature (Biolog plate: PM02A) was found to be 44.
Consider `C[C@H](CCC(=O)NCCS(=O)(=O)O)[C@H]1CC[C@H]2[C@@H]3[C@H](O)C[C@@H]4C[C@H](O)CC[C@]4(C)[C@H]3C[C@H](O)[C@]12C` [Taurocholic acid], for which the protein melting temperature (Biolog plate: PM04A) stood at 44.2.
For `OC[C@@H]1OC(O)[C@@H](O)[C@H](O)[C@H]1O` (stereo partly drawn) [L-Glucose], the protein melting temperature (Biolog plate: PM02A) amounted to 44.4.
In the case of `CC(C)[C@H](N)C(=O)O` [L-Valine], the protein melting temperature (Biolog plate: PM02A) is 44.5, the protein melting temperature (Biolog plate: PM03B) was found to be 45 and the protein melting temperature (Biolog plate: PM05) was 43.5.
Take `NC(=O)OP(=O)(O)O` [Carbamyl Phosphate]: the protein melting temperature (Biolog plate: PM04A) came to 44.7.
As to `Nc1nc(=O)c2nc(CNc3ccc(C(=O)N[C@@H](CCC(=O)O)C(=O)O)cc3)cnc2[nH]1` [Folic acid], under “Biolog plate: PM05”, the protein melting temperature was 43.8.
For the compound `OC[C@@H](O)[C@H](O)[C@@H](O)CO` [Xylitol], where the note is “Biolog plate: PM02A”, the protein melting temperature came to 44.3.
Turning to `CC(C)(CO)[C@@H](O)C(=O)NCCC(=O)O` [D-Pantothenic acid], the protein melting temperature (Biolog plate: PM05) was 43.7.
Turning to `NCCCCN` [Putrescine], the protein melting temperature (Biolog plate: PM02A) worked out at 43.7, the protein melting temperature (Biolog plate: PM03B) stood at 44 and the protein melting temperature (Biolog plate: PM05) came to 44.1.
`NCC(=O)N[C@@H](CCC(N)=O)C(=O)O` [Gly-Gln]: for the setting “Biolog plate: PM03B”, the protein melting temperature turned out to be 45.2.
On to `OC[C@H]1O[C@@](CO)(O[C@H]2O[C@H](CO)[C@@H](O)[C@H](O)[C@H]2O)[C@@H](O[C@H]2O[C@H](CO)[C@@H](O)[C@H](O)[C@H]2O)[C@@H]1O` [D-Melezitose], for which, under “Biolog plate: PM02A”, the protein melting temperature was found to be 44.5.
As for `Nc1cc[nH]c(=O)n1` [Cytosine], the protein melting temperature runs as follows: (Biolog plate: PM03B) 45.2; (Biolog plate: PM05) 44.3.
With `OC[C@H]1O[C@H](O[C@H]2O[C@H](CO)[C@@H](O)[C@H](O)[C@H]2O)[C@H](O)[C@@H](O)[C@@H]1O` [D-Trehalose], the protein melting temperature (Biolog plate: PM01) was 43.9.
Turning to `CCC(N)C(=O)O` (racemic) [DL-a-Amino-N-Butyric acid], the protein melting temperature (Biolog plate: PM03B) worked out at 44.3.
Take `N[C@@H](COP(=O)(O)O)C(=O)O` [O-Phospho-L-Serine]: the protein melting temperature (Biolog plate: PM04A) was found to be 43.9.
For `CO[C@@H]1O[C@H](CO)[C@H](O)[C@H](O)[C@H]1O` [b-Methyl-D-Galactoside], the protein melting temperature (Biolog plate: PM02A) is 43.7.
Consider `CCN` [Ethylamine], for which the protein melting temperature (Biolog plate: PM03B) amounted to 44.7.
For `CN` [Methylamine], the protein melting temperature (Biolog plate: PM03B) was determined as 45.8.
For the compound `CS(=O)(=O)CC[C@H](N)C(=O)O` [L-Methionine Sulfone], the protein melting temperature (Biolog plate: PM04A) was determined as 43.9.
Regarding `NC(=O)CCC(=O)O` [Succinamic acid], the protein melting temperature (Biolog plate: PM02A) was 43.6.
In the case of `CO[C@H]1O[C@H](CO)[C@H](O)[C@H](O)[C@H]1O` [a-Methyl-D-Galactoside], the protein melting temperature (Biolog plate: PM01) came out at 44.9.
Still for that read-out and setting: the figure for `OC[C@@H](O)[C@H](O)[C@H](O)[C@@H](O)CO` [Dulcitol] is 44.6.
Turning to `CC1(O)CCOC(=O)C1` (racemic) [DL-Mevalonic acid Lactone], the protein melting temperature (Biolog plate: PM05) came out at 43.8.
As for `CCCC(=O)C(=O)O` [a-Keto-Valeric acid], the protein melting temperature (Biolog plate: PM02A) turned out to be 44.3.
In the case of `O=C(O)[C@]1(O)C[C@@H](O)[C@@H](O)[C@H](O)C1` [Quinic acid], the protein melting temperature (Biolog plate: PM02A) came out at 44.2.
For `N=C(N)NCCC[C@H](N)C(=O)O` [L-Arginine], the protein melting temperature (Biolog plate: PM02A) amounted to 44.2, the protein melting temperature (Biolog plate: PM03B) amounted to 45.4 and the protein melting temperature (Biolog plate: PM05) was determined as 44.6.
As for `CSCC[C@@H](N)C(=O)O` [D-Methionine], for the setting “Biolog plate: PM04A”, the protein melting temperature amounted to 43.7.
In the case of `NC(=O)NC1NC(=O)NC1=O` (centres undefined) [Allantoin], the protein melting temperature (Biolog plate: PM03B) turned out to be 44.2.
For `CSCC[C@H](N)C(=O)N[C@@H](C)C(=O)O` [Met-Ala], the protein melting temperature (Biolog plate: PM03B) amounted to 44.9.
For `C[C@@H](N)C(=O)O` [D-Alanine], the protein melting temperature runs as follows: (Biolog plate: PM01) 43.9; (Biolog plate: PM03B) 44.9; (Biolog plate: PM05) 44.
On to `NCCS` [Cysteamine], for which, for the setting “Biolog plate: PM04A”, the protein melting temperature amounted to 42.8.
The same measure, in the same setting: the same measure for `OP(O)(O)=S` [Thiophosphate]: 43.88 ± 0.26.
For the compound `OCC(O)C(O)C(O)CO` (centres undefined) [Adonitol], the protein melting temperature (Biolog plate: PM01) worked out at 44.8.
As for `NCCCC[C@@H](N)C(=O)O` [D-Lysine], the protein melting temperature (Biolog plate: PM03B) was 44.3.
As for `O=C(O)CC(=O)C(=O)O` [Oxaloacetic acid], under “Biolog plate: PM05”, the protein melting temperature worked out at 43.8.
For `C[C@H](N)C(=O)N[C@H](C(=O)O)[C@@H](C)O` [Ala-Thr], the protein melting temperature (Biolog plate: PM03B) was found to be 45.1.
Turning to `C[N+](C)(C)CCO` [Choline], under “Biolog plate: PM05”, the protein melting temperature worked out at 43.1.
For the compound `CC1=CC(=O)c2ccccc2C1=O` [Menadione], the protein melting temperature (Biolog plate: PM05) stood at 42.6.
Turning to `N[C@@H](CCO)C(=O)O` [L-Homoserine], the protein melting temperature turned out to be 44.7 (Biolog plate: PM02A) and 44.8 (Biolog plate: PM03B).
In the case of `CCCCCC(=O)O` [Caproic acid], under “Biolog plate: PM02A”, the protein melting temperature was 43.3.
For `O=C[C@H](O)[C@@H](O)[C@H](O)[C@H](O)COP(=O)(O)O` [D-Glucose-6-Phosphate], the protein melting temperature reads like this: (Biolog plate: PM01) 44.6; (Biolog plate: PM04A) 43.8.
Turning to `NC(N)=O` [Urea], the protein melting temperature (Biolog plate: PM03B) was 46.5.
For the compound `O=C(CO)[C@@H](O[C@H]1O[C@H](CO)[C@@H](O)[C@H](O)[C@H]1O)[C@H](O)[C@H](O)CO` [Turanose], where the note is “Biolog plate: PM02A”, the protein melting temperature came to 44.1.
For `OP(O)(=S)S` [Dithiophosphate], the protein melting temperature (Biolog plate: PM04A) was 43.6 ± 0.59.
Same read-out and setting: the same measure for `CCOP(=O)(OCC)OCC` [Triethyl Phosphate]: 44.9; for `O=C(O)C(O)COP(=O)(O)O` [D-3-Phospho-Glyceric acid]: 44.9.
Take `NC(=O)NCCC[C@H](N)C(=O)O` [L-Citrulline]: the protein melting temperature was 44.8 (Biolog plate: PM03B) and 43.8 (Biolog plate: PM05).
Regarding `NCCc1c[nH]cn1` [Histamine], for the setting “Biolog plate: PM03B”, the protein melting temperature turned out to be 45.1.
For the compound `N[C@H](CC(=O)O)C(=O)O` [D-Aspartic acid], the protein melting temperature (Biolog plate: PM01) worked out at 44.2, the protein melting temperature (Biolog plate: PM03B) is 44.9 and the protein melting temperature (Biolog plate: PM05) was 44.4.
`C/C(=C/C(=O)O)C(=O)O` [Citraconic acid]: where the note is “Biolog plate: PM02A”, the protein melting temperature stood at 43.7.
As to `O=C(O)[C@@H]1CCCN1` [L-Proline], the protein melting temperature was determined as 44.3 (Biolog plate: PM01), 45.1 (Biolog plate: PM03B) and 44.2 (Biolog plate: PM05).
Consider `O=C(CO)[C@@H](O)[C@H](O)[C@@H](O)C(=O)O` [5-Keto-D-Gluconic acid], for which the protein melting temperature (Biolog plate: PM02A) turned out to be 43.9.
`O=[N+]([O-])O` [Nitrate]: the protein melting temperature (Biolog plate: PM03B) turned out to be 46.
